Results on 3 substances are retold here after patent US9244073B2, “Assays for detecting enzymatic activity” (Wellstat Diagnostics, LLC, priority 2011, dated 2016).

In experiment [1] the test system is FXa. Put plainly: Detecting FXa activity with biotin- and TAG Plus-conjugated substrate (ECL, loss of signal on cleavage). In kind it is biochemical. An excerpt: FXa activity can be measured through the use of peptides that include a FXa recognition sequence, a biotin at one terminus of the peptide and a BV-TAG Plus at the other terminus. In this embodiment, FXa recognizes and specifically cleaves the peptide between the arginine amino acid and the next amino acid toward the carboxy terminus, e.g., between arginine and glycine in peptide probe sequences I and II below. The cleavage by FXa results in the separation of biotin from the BV-TAG Plus. When the biotin is captured with streptavidin coated microparticles (Dynabeads M280-SA, Invitrogen, Cat: 112-06D), this loss of BV-TAG Plus can be measured quantitatively by an ECL instrument such as the M-SERIES® M1MR Analyzer (BioVeris Corporation, Gaithersburg, Md.).
A FXa activity calibrator curve was set up in a 96-well U bottom microtiter plate containing a serial dilution of FXa in an assay buffer [20 mM Tris-HCl (pH 7.2), 100 mM NaCl, 0.5% BSA and 6.0 mM CaCl2], with either peptide probe sequence I or II and M280-SA beads (Dynabeads M280-SA, Invitrogen, Cat: 112-06D). To each well was added 50 μL of 2-fold serial dilutions of FXa from 5000, 2500, 1250, 625, 313, 156 and 78.1 ng/mL and 50 μL of peptide probe (sequence I or II) at 10.0 ng/mL. The plate was incubated for 50 minutes on a MicroMix 5 shaker (Siemens) at room temperature and then 20 μL of 500 μg/mL M280-SA beads were added for an additional 10-minute incubation. The beads were washed once in 150 μL of a PBS-based buffer solution containing 1.8 mM KH2PO4, 10 mM Na2HPO4, 120 mM NaCl, 2.7 mM KCl, 0.033% Tween20 and 0.10% KATHON® CG/ICP II (Cat: 48178-U. Sigma, St. Louis, Mo.) and recovered by attaching a plate magnet to the 96-well plate (LIFESEP™ 96F, Dexter Magnetic Technologies Inc., Elk Grove Village, Ill. 60007). Beads were resuspended in 150 μL of the same PBS-based buffer and read in a M1MR Analyzer (Bioveris).

For experiment [2], the system named is FXa. Put plainly: Detecting FXa activity by capturing the TAG-labeled neoepitope with anti-FLAG M1 beads (ECL). In kind it is biochemical. On the procedure: A FXa activity calibrator curve was set up in a 96-well U bottom microtiter plate containing 50 μL of a 3-fold serial dilution of FXa at 1000, 333, 111, 37.0, 12.3, 4.12 and 1.37 ng/mL in the assay buffer (Example 4) and 25 μL of NH2-IEGRDYKDDDDKGS-TAG (SEQ ID NO:5) (1.25, 2.5 or 5.0 μg/mL) in a hot plate at 37° C. for 10 minutes. After the incubation, 50 μL of Bi-anti-FLAG®-M1 antibody prebound beads (200 μg/mL concentration at the ratio of 10 μg of antibody per 1.0 mg of beads) were added, followed by an incubation for another 20 minutes at 37° C. After the incubation, the beads were washed once in 150 μL of the PBS-based buffer solution (Example 3) and were resuspended in 150 μL of the PBS-based buffer before beads were read in a M1MR analyzer (BioVeris).

Where [3] appears, read: substrate 1.25 μg/mL, FXa 1.37 ng/mL.
The mark [4] stands for this setting: substrate 1.25 μg/mL, FXa 4.12 ng/mL.
Where [5] appears, read: substrate 1.25 μg/mL, FXa 12.3 ng/mL.
The mark [6] stands for this setting: substrate 1.25 μg/mL, FXa 37.0 ng/mL.
The mark [7] stands for this setting: substrate 1.25 μg/mL, FXa 111 ng/mL.
Setting [8] is: substrate 1.25 μg/mL, FXa 333 ng/mL.
[9] abbreviates: substrate 1.25 μg/mL, FXa 1000 ng/mL.
Where [10] appears, read: substrate 2.5 μg/mL, FXa 1.37 ng/mL.
Setting [11] is: substrate 2.5 μg/mL, FXa 4.12 ng/mL.
[12] abbreviates: substrate 2.5 μg/mL, FXa 12.3 ng/mL.
Setting [13] is: substrate 2.5 μg/mL, FXa 37.0 ng/mL.
Setting [14] is: substrate 2.5 μg/mL, FXa 111 ng/mL.
The mark [15] stands for this setting: substrate 2.5 μg/mL, FXa 333 ng/mL.
Setting [16] is: substrate 2.5 μg/mL, FXa 1000 ng/mL.
[17] abbreviates: substrate 5.0 μg/mL, FXa 1.37 ng/mL.
The mark [18] stands for this setting: substrate 5.0 μg/mL, FXa 4.12 ng/mL.
[19] abbreviates: substrate 5.0 μg/mL, FXa 12.3 ng/mL.
[20] abbreviates: substrate 5.0 μg/mL, FXa 37.0 ng/mL.
Setting [21] is: substrate 5.0 μg/mL, FXa 111 ng/mL.
Where [22] appears, read: substrate 5.0 μg/mL, FXa 333 ng/mL.
The mark [23] stands for this setting: substrate 5.0 μg/mL, FXa 1000 ng/mL.

Chain of FXa (P00742 41-179 limits assumed): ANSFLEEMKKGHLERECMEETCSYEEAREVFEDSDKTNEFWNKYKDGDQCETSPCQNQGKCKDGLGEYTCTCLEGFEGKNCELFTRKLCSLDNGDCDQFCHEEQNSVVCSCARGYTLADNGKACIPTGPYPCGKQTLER
Chain of FXa (P00742 235-488 limits assumed): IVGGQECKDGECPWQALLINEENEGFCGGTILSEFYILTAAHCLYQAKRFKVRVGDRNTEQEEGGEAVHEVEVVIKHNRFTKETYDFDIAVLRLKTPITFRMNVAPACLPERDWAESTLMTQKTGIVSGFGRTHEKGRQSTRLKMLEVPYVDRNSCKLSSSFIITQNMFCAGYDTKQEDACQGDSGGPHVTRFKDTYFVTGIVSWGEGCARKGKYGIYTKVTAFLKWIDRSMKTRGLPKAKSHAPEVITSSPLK

For the substance “Biotin-(mPeg2)IEGRGS (KBv TAG Plus) amide [Peptide Probe Sequence II]”, the “% Signal Decrease” value in the experiment on FXa [1] (FXa 78.1 ng/mL) is 0%; in the experiment with FXa [1] (FXa 156 ng/mL), −4%; in the experiment with FXa [1] (FXa 313 ng/mL), −11%; in the experiment on FXa [1] (FXa 625 ng/mL) it was −10%; in the experiment with FXa [1] (FXa 1250 ng/mL), −24%; in the experiment on FXa [1] (FXa 2500 ng/mL), −39%. The “% Signal Decrease” value in the experiment with FXa [1] (FXa 5000 ng/mL) is −66%. Also, the “Mean Signal” value in the experiment on FXa [1] (FXa 78.1 ng/mL) is recorded as 339795; in the experiment on FXa [1] (FXa 156 ng/mL), 325928; in the experiment with FXa [1] (FXa 313 ng/mL) it was 302632; in the experiment on FXa [1] (FXa 625 ng/mL), 305778; in the experiment on FXa [1] (FXa 1250 ng/mL) it was 256745; in the experiment on FXa [1] (FXa 2500 ng/mL) it was 208649. Moreover, the “Mean Signal” value in the experiment with FXa [1] (FXa 5000 ng/mL) was 116839.
As for “Biotin-IEGRGS (KBv TAG Plus) amide [Peptide Probe Sequence I]”, the “% Signal Decrease” value with FXa [1] (FXa 78.1 ng/mL) is on record as −3%; in the experiment with FXa [1] (FXa 156 ng/mL), −3%; with FXa [1] (FXa 313 ng/mL) it was −9%; with FXa [1] (FXa 625 ng/mL), −15%; in the experiment with FXa [1] (FXa 1250 ng/mL), −31%; in the experiment on FXa [1] (FXa 2500 ng/mL), −53%. Besides, the “% Signal Decrease” value in the experiment on FXa [1] (FXa 5000 ng/mL) is listed as −76%. In addition, the “Mean Signal” value was 413958 in the experiment with FXa [1] (FXa 78.1 ng/mL); 413232 in the experiment on FXa [1] (FXa 156 ng/mL); 388137 in the experiment with FXa [1] (FXa 313 ng/mL); 363185 in the experiment with FXa [1] (FXa 625 ng/mL); 296182 with FXa [1] (FXa 1250 ng/mL); 202007 in the experiment with FXa [1] (FXa 2500 ng/mL). Moreover, the “Mean Signal” value with FXa [1] (FXa 5000 ng/mL) is reported as 103604.
For the substance “NH2-IEGRDYKDDDDKGS-TAG (TAG label; includes cleavage recognition site and binding site for anti-FLAG antibody)”, the “Mean Signal” value with FXa [2] (setting [3]) stood at 1140; with FXa [2] (setting [4]) it was 2174; in the experiment with FXa [2] (setting [5]) it was 4437; in the experiment on FXa [2] (setting [6]), 10667; in the experiment on FXa [2] (setting [7]) it was 20521; in the experiment on FXa [2] (setting [8]) it was 52797. Besides, the “Mean Signal” value in the experiment with FXa [2] (setting [9]) amounted to 69011; in the experiment with FXa [2] (setting [10]) it was 1393; in the experiment on FXa [2] (setting [11]) it was 3828; in the experiment with FXa [2] (setting [12]), 7696; with FXa [2] (setting [13]), 20144; with FXa [2] (setting [14]), 41788. Also, the “Mean Signal” value with FXa [2] (setting [15]) came to 62747; in the experiment with FXa [2] (setting [16]), 78193; with FXa [2] (setting [17]) it was 3725; in the experiment on FXa [2] (setting [18]), 6363; with FXa [2] (setting [19]), 14866; in the experiment with FXa [2] (setting [20]), 32274. Further, the figures for the “Mean Signal” value in the experiment on FXa [2] (setting [21]), with FXa [2] (setting [22]) and in the experiment with FXa [2] (setting [23]) were 62147, 78710 and 86900, respectively. The Signal/Background in the experiment with FXa [2] (setting [3]) came out at 1.9; in the experiment on FXa [2] (setting [4]), 3.7; with FXa [2] (setting [5]) it was 7.5; in the experiment with FXa [2] (setting [6]) it was 18; with FXa [2] (setting [7]) it was 35; with FXa [2] (setting [8]), 89. For the same substance, the Signal/Background in the experiment with FXa [2] (setting [9]) was 116; in the experiment on FXa [2] (setting [10]), 1.6; in the experiment with FXa [2] (setting [11]), 4.5; in the experiment with FXa [2] (setting [12]), 9.0; in the experiment with FXa [2] (setting [13]), 24; in the experiment with FXa [2] (setting [14]), 49. In addition, the Signal/Background was 73 in the experiment on FXa [2] (setting [15]); 91 in the experiment with FXa [2] (setting [16]); 2.1 in the experiment on FXa [2] (setting [17]); 3.6 in the experiment with FXa [2] (setting [18]); 8.4 in the experiment with FXa [2] (setting [19]); 18 in the experiment with FXa [2] (setting [20]). In addition, the Signal/Background in the experiment with FXa [2] (setting [21]) stood at 35; with FXa [2] (setting [22]), 45; in the experiment on FXa [2] (setting [23]), 49.
